Results published in ChEMBL document CHEMBL5620434, “Total Synthesis and Antibacterial Evaluation of Lupinifolin and Its Natural Analogues” (2024).
In brackets after ≈: the same amount, converted by molar mass. Activity calls are given as the source filed them. No cut-off for these calls is given here.

Legend:
Escherichia coli [1] = assay: Antibacterial activity against Escherichia coli ATCC 25922 assessed as reduction in bacterial growth incubated for 24 hrs by CLSI protocol based assay; type: functional
Staphylococcus aureus [2] = assay: Antibacterial activity against Staphylococcus aureus ATCC29213 assessed as reduction in bacterial growth incubated for 24 hrs by CLSI protocol based assay; type: functional
Enterococcus faecalis [3] = assay: Antibacterial activity against vancomycin-resistant Enterococcus faecalis ATCC51299 assessed as reduction in bacterial growth incubated for 24 hrs by CLSI protocol based assay; type: functional
Enterococcus faecalis [4] = assay: Antibacterial activity against Enterococcus faecalis ATCC29212 assessed as reduction in bacterial growth incubated for 24 hrs by CLSI protocol based assay; type: functional
Staphylococcus aureus [5] = assay: Antibacterial activity against methicillin-resistant Staphylococcus aureus 21-5 assessed as reduction in bacterial growth incubated for 24 hrs by CLSI protocol based assay; type: functional
Streptococcus mutans [6] = assay: Bactericidal activity against Streptococcus mutans by CLSI protocol based assay; type: functional
Streptococcus mutans [7] = assay: Antibacterial activity against Streptococcus mutans by CLSI protocol based assay; type: functional
Cell membrane [8] = assay: Disruption of membrane integrity in Enterococcus faecalis ATCC29212 assessed as increase in green fluorescence at 8 times MIC incubated for 2 hrs by NucGreen dye based fluorescence microscopic analysis; type: cell membranes
Enterococcus faecalis [9] = assay: Antibacterial activity against Enterococcus faecalis assessed as decrease in bacterial growth measured after 16 to 18 hrs in presence of phosphatidylglycerol; type: functional, organism-based; details: time 16-18 hrs
Cell membrane [10] = assay: Disruption of membrane integrity in […] Enterococcus faecalis ATCC29212 assessed as appearance of shrunken cell surface at 2.0 ug/ml incubated for 2 hrs by SEM analysis; type: cell membranes; details: dose 2.0 µg/ml
Enterococcus faecalis [11] = assay: Antibacterial activity against Enterococcus faecalis assessed as decrease in bacterial growth measured after 16 to 18 hrs in presence of phosphatidylethanolamine; type: functional, organism-based; details: time 16-18 hrs
Cell membrane [12] = assay: Disruption of membrane integrity in […] Enterococcus faecalis ATCC29212 assessed as appearance of ruptured cell surface at 2.0 ug/ml incubated for 2 hrs by SEM analysis; type: cell membranes; details: dose 2.0 µg/ml
Enterococcus faecalis [13] = assay: Antibacterial activity against Enterococcus faecalis assessed as decrease in bacterial growth measured after 16 to 18 hrs in presence of peptidoglycan; type: functional, organism-based; details: time 16-18 hrs
Enterococcus faecalis [14] = assay: Antibacterial activity against Enterococcus faecalis assessed as decrease in bacterial growth measured after 16 to 18 hrs in presence of cardiolipin; type: functional, organism-based; details: time 16-18 hrs
Cell membrane [15] = assay: Disruption of membrane integrity in […] Enterococcus faecalis ATCC29212 assessed as appearance of wrinkled cell surface at 2.0 ug/ml incubated for 2 hrs by SEM analysis; type: cell membranes; details: dose 2.0 µg/ml
Cell membrane [16] = assay: Disruption of membrane integrity in Enterococcus faecalis ATCC29212 assessed as increase in red fluorescence at 8 times MIC incubated for 2 hrs by EthD-III dye based fluorescence microscopic analysis
Escherichia coli [17] = assay: Antibacterial activity against Escherichia coli ATCC 25922 in presence of polymyxin B nonapeptide; type: functional
Escherichia coli [18] = assay: Antibacterial activity against Escherichia coli ATCC 25922; type: functional

SMILES: CC(C)=CCc1c2c(c(O)c3c1O[C@H](c1ccc(O)cc1O)CC3=O)C=CC(C)(C)O2 [FLEMICHIN D]
- MIC (Escherichia coli [1]): > 128 µg/mL
- MIC (Staphylococcus aureus [2]): 0.5 µg/mL (≈ 1.18 µM)
- MIC (Enterococcus faecalis [3]): 0.5 µg/mL (≈ 1.18 µM)
- MIC (Enterococcus faecalis [4]): 0.5 µg/mL (≈ 1.18 µM)
- MIC (Staphylococcus aureus [5]): 0.5 µg/mL (≈ 1.18 µM)

SMILES: CC(C)=CCc1c2c(c(O)c3c1O[C@H](c1ccccc1O)CC3=O)C=CC(C)(C)O2 [MINIMIFLORIN]
- MIC (Escherichia coli [1]): > 128 µg/mL
- MIC (Staphylococcus aureus [2]): 2 µg/mL (≈ 4.92 µM)
- MIC (Enterococcus faecalis [3]): 1 µg/mL (≈ 2.46 µM)
- MIC (Enterococcus faecalis [4]): 0.5 µg/mL (≈ 1.23 µM)
- MIC (Staphylococcus aureus [5]): 2 µg/mL (≈ 4.92 µM)

SMILES: CC(C)=CCc1c2c(c(O)c3c1O[C@H](c1ccc(O)cc1)CC3=O)C=CC(C)(C)O2 [LUPINIFOLIN]
- MIC (Escherichia coli [1]): > 128 µg/mL
- MIC (Staphylococcus aureus [2]): 2 µg/mL (≈ 4.92 µM)
- MIC (Enterococcus faecalis [3]): 1 µg/mL (≈ 2.46 µM)
- MIC (Enterococcus faecalis [4]): 0.5 µg/mL (≈ 1.23 µM)
- MIC (Staphylococcus aureus [5]): 2 µg/mL (≈ 4.92 µM)
- MBC (Streptococcus mutans [6]): 0.5 µg/mL (≈ 1.23 µM)
- MIC (Streptococcus mutans [7]): 0.25 µg/mL (≈ 0.615 µM)

SMILES: CC(C)=CCc1c(O)c2c(c3c1OC(C)(C)C=C3)OC(c1ccc(O)cc1O)CC2=O (stereo not drawn)
- Activity (Cell membrane [8]): Active
- MIC (Escherichia coli [1]): > 128 µg/mL
- MIC (Staphylococcus aureus [2]): 0.25 µg/mL (≈ 0.592 µM)
- Activity (Enterococcus faecalis [9]): Active
- Activity (Cell membrane [10]): Active
- MIC (Enterococcus faecalis [3]): 0.5 µg/mL (≈ 1.18 µM)
- Activity (Enterococcus faecalis [11]): inactive
- Activity (Cell membrane [12]): Active
- MIC (Enterococcus faecalis [4]): 0.25 µg/mL (≈ 0.592 µM)
- Activity (Enterococcus faecalis [13]): inactive
- MIC (Staphylococcus aureus [5]): 0.25 µg/mL (≈ 0.592 µM)
- Activity (Enterococcus faecalis [14]): Active
- Activity (Cell membrane [15]): Active
- Activity (Cell membrane [16]): Active
- MIC (Escherichia coli [17]): 2 µg/mL
- MIC (Escherichia coli [18]): > 128 µg/mL

SMILES: CC(C)C[C@@H]1NC(=O)[C@@H](Cc2ccccc2)NC(=O)[C@H](CCN)NC(=O)[C@@H](NC(=O)[C@H](CCN)NC(=O)[C@@H](N)[C@@H](C)O)CCNC(=O)C([C@@H](C)O)NC(=O)[C@H](CCN)NC(=O)[C@H](CCN)NC1=O (stereo partly drawn)
- MIC (Escherichia coli [18]): > 128 µg/mL

SMILES: COc1ccc([C@@H]2CC(=O)c3c(O)c4c(c(CC=C(C)C)c3O2)OC(C)(C)C=C4)c(O)c1 [KHONKLONGINOL H]
- MIC (Escherichia coli [1]): > 128 µg/mL
- MIC (Staphylococcus aureus [2]): 2 µg/mL (≈ 4.58 µM)
- MIC (Enterococcus faecalis [3]): 4 µg/mL (≈ 9.16 µM)
- MIC (Enterococcus faecalis [4]): 1 µg/mL (≈ 2.29 µM)
- MIC (Staphylococcus aureus [5]): 4 µg/mL (≈ 9.16 µM)

SMILES: CC(C)=CCc1c2c(c(O)c3c1O[C@H](c1ccccc1)CC3=O)C=CC(C)(C)O2
- MIC (Escherichia coli [1]): > 128 µg/mL
- MIC (Staphylococcus aureus [2]): > 128 µg/mL
- MIC (Enterococcus faecalis [3]): > 128 µg/mL
- MIC (Enterococcus faecalis [4]): > 128 µg/mL
- MIC (Staphylococcus aureus [5]): > 128 µg/mL

SMILES: CC1(C)S[C@@H]2[C@H](NC(=O)[C@H](N)c3ccccc3)C(=O)N2[C@H]1C(=O)O [AMPICILLIN]
- MIC (Escherichia coli [1]): 8 µg/mL (≈ 22.9 µM)
- MIC (Staphylococcus aureus [2]): 0.5 µg/mL (≈ 1.43 µM)
- MIC (Enterococcus faecalis [4]): 0.5 µg/mL (≈ 1.43 µM)
- MIC (Staphylococcus aureus [5]): 32 µg/mL (≈ 91.6 µM)
